Laboratory results as given in PubChem BioAssay AID1963861 (Molecular Pharmacology Branch, DTP, NCI, 2024).

Test system: 885724-159-R-J1-PDC KRAS PDC multicell spheroid viability
Assay: Anticancer human tumor 885724-159-R-J1-PDC patient-derived pancreatic adenocarcinoma cell line growth inhibition [KRAS2]
Details: for IC50: curve of first compound; for viability, T/C: stronger effect = lower value
Outline: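 Combination screen of spheroid viability in tumor-cell co-cultures with endothelial (HUVEC) and mesenchymal stem cell stroma. Each agent was tested in half-log dilutions, topping at clinical Cmax or at 10 microM without a known Cmax.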

[1] = second compound 0.1 µM, first compound 0.000316 µM
[2] = second compound 0.1 µM, first compound 0.001 µM
[3] = second compound 0.1 µM, first compound 0.00316 µM
[4] = second compound 0.1 µM, first compound 0.01 µM
[5] = second compound 0.1 µM, first compound 0.0316 µM
[6] = second compound 0.316 µM, first compound 0.000316 µM
[7] = second compound 0.316 µM, first compound 0.001 µM
[8] = second compound 0.316 µM, first compound 0.00316 µM
[9] = second compound 0.316 µM, first compound 0.01 µM
[10] = second compound 0.316 µM, first compound 0.0316 µM
[11] = second compound 1 µM, first compound 0.000316 µM
[12] = second compound 1 µM, first compound 0.001 µM
[13] = second compound 1 µM, first compound 0.00316 µM
[14] = second compound 1 µM, first compound 0.01 µM
[15] = second compound 1 µM, first compound 0.0316 µM
[16] = second compound 3.16 µM, first compound 0.000316 µM
[17] = second compound 3.16 µM, first compound 0.001 µM
[18] = second compound 3.16 µM, first compound 0.00316 µM
[19] = second compound 3.16 µM, first compound 0.01 µM
[20] = second compound 3.16 µM, first compound 0.0316 µM
[21] = second compound 10 µM, first compound 0.000316 µM
[22] = second compound 10 µM, first compound 0.001 µM
[23] = second compound 10 µM, first compound 0.00316 µM
[24] = second compound 10 µM, first compound 0.01 µM
[25] = second compound 10 µM, first compound 0.0316 µM
[26] = second compound 0.1 µM, first compound 0.1 µM
[27] = second compound 0.316 µM, first compound 0.1 µM
[28] = second compound 1 µM, first compound 0.1 µM
[29] = second compound 3.16 µM, first compound 0.1 µM
[30] = second compound 10 µM, first compound 0.1 µM
[31] = second compound 0.1 µM, first compound 0.316 µM
[32] = second compound 0.1 µM, first compound 1 µM
[33] = second compound 0.1 µM, first compound 3.16 µM
[34] = second compound 0.1 µM, first compound 10 µM
[35] = second compound 0.316 µM, first compound 0.316 µM
[36] = second compound 0.316 µM, first compound 1 µM
[37] = second compound 0.316 µM, first compound 3.16 µM
[38] = second compound 0.316 µM, first compound 10 µM
[39] = second compound 1 µM, first compound 0.316 µM
[40] = second compound 1 µM, first compound 1 µM
[41] = second compound 1 µM, first compound 3.16 µM
[42] = second compound 1 µM, first compound 10 µM
[43] = second compound 3.16 µM, first compound 0.316 µM
[44] = second compound 3.16 µM, first compound 1 µM
[45] = second compound 3.16 µM, first compound 3.16 µM
[46] = second compound 3.16 µM, first compound 10 µM
[47] = second compound 10 µM, first compound 0.316 µM
[48] = second compound 10 µM, first compound 1 µM
[49] = second compound 10 µM, first compound 3.16 µM
[50] = second compound 10 µM, first compound 10 µM
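Note: spheroids exposed to agents for 7 days before readout.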

`CC(=O)Nc1cccc(-n2c(=O)n(C3CC3)c(=O)c3c(Nc4ccc(I)cc4F)n(C)c(=O)c(C)c32)c1` + CNCc1ccccc1-c1csc(C(C)Nc2nc(C)nc3cc(OC)c(OC)cc23)c1 showed an IC50 (second compound 0.1 µM) of 0.893 nM, an IC50 (second compound 0.316 µM) of 0.824 nM and an IC50 (second compound 1 µM) of 0.519 nM. The IC50 (second compound 3.16 µM) was < 0.1 nM, the IC50 (second compound 10 µM) was < 0.1 nM and the viability, T/C (second compound 0.1 µM, first compound 0.0001 µM) was 90.3%. For the same compound, the viability, T/C [1] was 71.2%, the viability, T/C [2] was 43.9% and the viability, T/C [3] was 34.7%. It also gave a viability, T/C [4] of 24.7%, a viability, T/C [5] of 16.2% and a viability, T/C (second compound 0.316 µM, first compound 0.0001 µM) of 90.4%. The viability, T/C [6] was 70.2%, the viability, T/C [7] was 43.9% and the viability, T/C [8] was 30.3%. The viability, T/C [9] was 20.5%, the viability, T/C [10] was 12.9% and the viability, T/C (second compound 1 µM, first compound 0.0001 µM) was 90.8%. For the same compound, the viability, T/C [11] was 63.7%, the viability, T/C [12] was 30.5% and the viability, T/C [13] was 20.6%. It also gave a viability, T/C [14] of 6.76%, a viability, T/C [15] of 1.59% and a viability, T/C (second compound 3.16 µM, first compound 0.0001 µM) of 1.26%. The viability, T/C [16] was 0.83%, the viability, T/C [17] was 0.53% and the viability, T/C [18] was 0.68%. For the same compound, the viability, T/C [19] was 0.79%, the viability, T/C [20] was 1.69% and the viability, T/C (second compound 10 µM, first compound 0.0001 µM) was 0.21%. For the same compound, the viability, T/C [21] was 0.24%, the viability, T/C [22] was 0.25% and the viability, T/C [23] was 0.37%. The viability, T/C [24] was 0.34% and the viability, T/C [25] was 0.69%.
For `CN(C)C/C=C/C(=O)Nc1cc2c(Nc3ccc(F)c(Cl)c3)ncnc2cc1O[C@H]1CCOC1` + CNCc1ccccc1-c1csc(C(C)Nc2nc(C)nc3cc(OC)c(OC)cc23)c1, the IC50 (second compound 0.1 µM) was > 100 nM, the IC50 (second compound 0.316 µM) was > 100 nM and the IC50 (second compound 1 µM) was > 100 nM. For the same compound, the IC50 (second compound 3.16 µM) was 2.35 nM, the IC50 (second compound 10 µM) was < 0.316 nM and the viability, T/C [1] was 104%. The viability, T/C [2] was 95.4%, the viability, T/C [3] was 93.2% and the viability, T/C [4] was 89.8%. The viability, T/C [5] was 77.9%, the viability, T/C [26] was 66.7% and the viability, T/C [6] was 108%. It also gave a viability, T/C [7] of 107%, a viability, T/C [8] of 86.6% and a viability, T/C [9] of 81.7%. It also gave a viability, T/C [10] of 74%, a viability, T/C [27] of 63.4% and a viability, T/C [11] of 109%. For the same compound, the viability, T/C [12] was 104%, the viability, T/C [13] was 94.6% and the viability, T/C [14] was 83.1%. For the same compound, the viability, T/C [15] was 70.3%, the viability, T/C [28] was 67.5% and the viability, T/C [16] was 105%. The viability, T/C [17] was 123%, the viability, T/C [18] was 0.97% and the viability, T/C [19] was 0.27%. It also gave a viability, T/C [20] of 71.9%, a viability, T/C [29] of 38% and a viability, T/C [21] of 0.22%. The viability, T/C [22] was 0.26%, the viability, T/C [23] was 0.18% and the viability, T/C [24] was 0.15%. For the same compound, the viability, T/C [25] was 0.22% and the viability, T/C [30] was 0.25%.
`COC(=O)c1ccc2c(C(=Nc3ccc(N(C)C(=O)CN4CCN(C)CC4)cc3)c3ccccc3)c(O)[nH]c2c1` + CNCc1ccccc1-c1csc(C(C)Nc2nc(C)nc3cc(OC)c(OC)cc23)c1 was tested, and the IC50 (second compound 0.1 µM) was 2550 nM, the IC50 (second compound 0.316 µM) was 1860 nM and the IC50 (second compound 1 µM) was 2170 nM. For the same compound, the IC50 (second compound 3.16 µM) was < 31.6 nM, the IC50 (second compound 10 µM) was < 31.6 nM and the viability, T/C [5] was 111%. The viability, T/C [26] was 107%, the viability, T/C [31] was 117% and the viability, T/C [32] was 110%. It also gave a viability, T/C [33] of 36.2%, a viability, T/C [34] of 1.52% and a viability, T/C [10] of 108%. The viability, T/C [27] was 110%, the viability, T/C [35] was 107% and the viability, T/C [36] was 102%. The viability, T/C [37] was 6.06%, the viability, T/C [38] was 0.58% and the viability, T/C [15] was 106%. The viability, T/C [28] was 115%, the viability, T/C [39] was 107% and the viability, T/C [40] was 96.7%. It also gave a viability, T/C [41] of 27.2%, a viability, T/C [42] of 1.19% and a viability, T/C [20] of 1.59%. For the same compound, the viability, T/C [29] was 4.08%, the viability, T/C [43] was 1.18% and the viability, T/C [44] was 0.58%. It also gave a viability, T/C [45] of 1.26%, a viability, T/C [46] of 0.34% and a viability, T/C [25] of 0.26%. For the same compound, the viability, T/C [30] was 0.2%, the viability, T/C [47] was 0.15% and the viability, T/C [48] was 0.33%. The viability, T/C [49] was 0.38% and the viability, T/C [50] was 0.48%.
In the case of `O=C(c1cc(Cc2n[nH]c(=O)c3ccccc23)ccc1F)N1CCN(C(=O)C2CC2)CC1` + CNCc1ccccc1-c1csc(C(C)Nc2nc(C)nc3cc(OC)c(OC)cc23)c1, the IC50 (second compound 0.1 µM) is reported as > 10000 nM, the IC50 (second compound 0.316 µM) is reported as > 10000 nM and the IC50 (second compound 1 µM) is reported as > 10000 nM. The IC50 (second compound 3.16 µM) was < 31.6 nM, the IC50 (second compound 10 µM) was < 31.6 nM and the viability, T/C [5] was 110%. For the same compound, the viability, T/C [26] was 112%, the viability, T/C [31] was 98.4% and the viability, T/C [32] was 101%. The viability, T/C [33] was 96.2%, the viability, T/C [34] was 84.7% and the viability, T/C [10] was 107%. The viability, T/C [27] was 107%, the viability, T/C [35] was 103% and the viability, T/C [36] was 96.4%. For the same compound, the viability, T/C [37] was 94.6%, the viability, T/C [38] was 81.7% and the viability, T/C [15] was 105%. The viability, T/C [28] was 112%, the viability, T/C [39] was 104% and the viability, T/C [40] was 95.7%. It also gave a viability, T/C [41] of 91.9%, a viability, T/C [42] of 81.8% and a viability, T/C [20] of 1.34%. For the same compound, the viability, T/C [29] was 1.56%, the viability, T/C [43] was 0.78% and the viability, T/C [44] was 0.88%. For the same compound, the viability, T/C [45] was 1%, the viability, T/C [46] was 1.09% and the viability, T/C [25] was 0.23%. The viability, T/C [30] was 0.26%, the viability, T/C [47] was 0.21% and the viability, T/C [48] was 0.28%. The viability, T/C [49] was 0.28% and the viability, T/C [50] was 0.68%.
